{"source": "patent US20170266186A1", "about": "“USE OF INHIBITORS OF BRUTON'S TYROSINE KINASE (BTK)” (Pharmacyclics LLC, priority 2011, published 2017)", "key": {"[1]": {"test_system": "relapsed/refractory subjects with MCL", "test": "phase II study of PCI-32765 in relapsed/refractory MCL", "conditions": "for Discontinuation: Adverse event / Discontinuation: Disease Progression / Death on study: 560 mg/day"}, "[2]": {"test_system": "plasma chemokines and cytokines", "test": "plasma chemokine and cytokine concentrations of ibrutinib treated MCL patients"}, "DOHH2": {"test_system": "DOHH2", "test": "growth inhibition by PCI-32765, DOHH2", "format": "cell-based", "conditions": "Homo sapiens, DOHH-2; DOHH2, FL-transformed"}, "primary MCL cells [3]": {"test_system": "primary MCL cells", "test": "adhesion of primary MCL cells", "conditions": "Homo sapiens, read-out: inhibition of CXCL12 or CXCL13 activated adhesion to VCAM1 and BCR stimulated adhesion to fibronectin"}, "[4]": {"test_system": "CD19+CD5+ cells of MCL patients", "test": "flow cytometry phenotyping of PBMCs of MCL patients before (D1) and after one week (D8) of ibrutinib", "format": "in vivo, human", "protocol": "Blood was drawn from MCL patients enrolled in PCYC-04753 or PCYC-1104 studies in the US in accordance with GCP guidelines provided by ICH and principles of the Declaration of Helsinki with informed consent and in compliance with the protocols approved by the relevant Institutional Review Board(s). The whole blood samples were drawn into sodium heparin CPT tubes (BD), mixed for 5 min then spun at 1500 rcf for 20 min at the collection sites. The samples were shipped overnight to Pharmacyclics with 36 hrs. In a laminar flow hood, the PBMCs were removed from the top layer of the tubes, washed with PBS, and frozen in 90% FBS+10% DMSO (Sigma, St Louis, Mo.) in liquid nitrogen until use.\nFrozen PBMCs were thawed in a 37° C. water bath, resuspended in RPMI+10% FBS, and recovered in a 37° C., 5% CO2 incubator in 5 ml polypropylene tubes (BD-Falcon) for 2 hours before phenotyping analysis. The PBMCs were washed with PBS+2% FBS, pelleted and resuspended in PBS+2% FBS containing phenotyping surface antibodies. All staining cocktails were run in duplicate tubes. The cells were stained for 30 minutes, washed with PBS, pelleted at 1300 rpm for 5 min, then fixed in PBS+1.6% paraformaldehyde (Electron Microscopy Services, Hatfield, Pa.).\nBD FACS Canto II (BD, San Jose, Calif.) was used for all flow cytometry collection. The instrument was maintained according to manufacturer's recommendations. CS&T beads (BD) are used daily for baseline and reproducibility measurements according to manufacturer's instructions. Phosphoflow assays were stained and performed as described. The above antibodies were used with BD CompBead Plus to establish compensation settings and antibody staining consistency. 10,000 CD19^+ cells were collected from each staining sample. The data was analyzed and quantified using FlowJo7.6 (Tree Star, Ashland, Oreg.)."}, "Ramos": {"test_system": "Ramos", "test": "growth inhibition by PCI-32765, Ramos", "format": "cell-based", "conditions": "Homo sapiens, Burkitt's"}, "Mino cells": {"test_system": "Mino cells", "test": "migration assay, CXCL13 stimulated", "conditions": "dose-dependently from 1 nM to 1 μM"}, "LY10": {"test_system": "LY10", "test": "growth inhibition by PCI-32765, LY10", "format": "cell-based", "conditions": "Homo sapiens; LY10, DLBCL, ABC"}, "pBtk, pPLCy2 and pAkt": {"test_system": "pBtk, pPLCy2 and pAkt", "conditions": "alone or in co-culture with M2 cells"}, "DoHH2 cells": {"test_system": "DoHH2 cells", "test": "Alamar blue assay in DoHH2 cells", "format": "cell-based"}, "DB": {"test_system": "DB", "test": "growth inhibition by PCI-32765, DB", "format": "cell-based", "conditions": "Homo sapiens, DLBCL"}, "Jekol and HBL1 cells": {"test_system": "Jekol and HBL1 cells", "test": "adhesion assay, anti-IgM stimulated", "conditions": "Homo sapiens, HBL1, read-out: inhibition of anti-IgM stimulated adhesion onto fibronectin or VCAM1"}, "DHL-6": {"test_system": "DHL-6", "test": "growth inhibition by PCI-32765, DHL-6", "format": "cell-based", "conditions": "Homo sapiens; DHL-6, DLBCL, GCB"}, "LY3": {"test_system": "LY3", "test": "growth inhibition by PCI-32765, LY3", "format": "cell-based", "conditions": "Homo sapiens; LY3, DLBCL, ABC (CARD11)"}, "primary MCL cells [5]": {"test_system": "primary MCL cells", "test": "co-culture assay: pseudoemperipoliesis of primary MCL cells with M2 stromal cells", "format": "cell-based, human", "conditions": "100 nM"}, "Granta-519": {"test_system": "Granta-519", "test": "growth inhibition by PCI-32765, Granta-519", "format": "cell-based", "conditions": "Homo sapiens; Granta-519, Mantle cell"}, "Mino and Jekol cells": {"test_system": "Mino and Jekol cells", "test": "chemokine and cytokine secretion of MCL cell lines after BCR activation or in stromal co-culture", "format": "cell-based, human", "conditions": "following BCR activation or in co-culture"}, "[6]": {"test_system": "B cell lymphoma derived cell lines", "test": "growth inhibition in a subset of B cell lymphoma derived cell lines", "format": "cell-based", "conditions": "Homo sapiens, read-out: GI50 values, range"}, "[7]": {"test_system": "pBtk (Y223, Y551), pPLCy2", "conditions": "primary MCL and normal B cells"}, "[8]": {"test_system": "subjects with B-cell malignancies", "description": "The dose-escalation portion of this open-label trial enrolled subjects with B-cell malignancies (histologies listed in Table 2, below) and is now completed."}}, "note": "Where two headings read alike, the source gives them in different places. Marks after values point to notes of the source that are not given here.", "data": [{"molecule": "C=CC(=O)N1CCC[C@@H](n2nc(-c3ccc(Oc4ccccc4)cc3)c3c(N)ncnc32)C1", "note": "[PCI-32765, (R)-1-(3-(4-amino-3-(4-phenoxyphenyl)-1H-pyrazolo[3,4-d]pyrimidin-1-yl)piperidin-1-yl)prop-2-en-1-one]", "values": [{"measurement": "Discontinuation: Adverse event", "setting": "[1]; Bortezomib-Exposed (N = 27)", "value": "1 (4) # (%)"}, {"measurement": "Discontinuation: Disease Progression", "setting": "[1]; Bortezomib-Exposed (N = 27)", "value": "6 (22) # (%)"}, {"measurement": "Death on study", "setting": "[1]; Bortezomib-Exposed (N = 27), pneumonia", "value": "1 (4) # (%)"}, {"measurement": "Death on study", "setting": "[1]; Bortezomib-Naïve (N = 41)", "value": "0 (0) # (%)"}, {"measurement": "Discontinuation: Adverse event", "setting": "[1]; Bortezomib-Naïve (N = 41)", "value": "2 (5) # (%)"}, {"measurement": "Discontinuation: Disease Progression", "setting": "[1]; Bortezomib-Naïve (N = 41)", "value": "7 (17) # (%)"}, {"measurement": "Death on study", "setting": "[1]; Total (N = 68)", "value": "1 (2) # (%)"}, {"measurement": "Discontinuation: Adverse event", "setting": "[1]; Total (N = 68)", "value": "3 (4) # (%)"}, {"measurement": "Discontinuation: Disease Progression", "setting": "[1]; Total (N = 68)", "value": "13 (19) # (%)"}, {"measurement": "myelosuppression", "setting": "[1]; during the study", "value": "No significant myelosuppression"}, {"measurement": "reduction of plasma chemokines such as MDC, MIP-1β, and CXCL13", "setting": "[2]; after one week of treatment", "value": "40-60%"}, {"measurement": "reduction of IL-10 and TNF-α", "setting": "[2]; by the end of the first cycle of treatment", "value": 50, "unit": "%"}, {"measurement": "reduction of chemokines MDC, MIP-1β, CXCL13 and CXCL17, on average", "setting": "[2]; following one week of treatment", "value": "more than 50%"}, {"measurement": "GI50", "setting": "DOHH2", "value": 120, "unit": "nM"}, {"measurement": "inhibition at 0.1 µM", "setting": "primary MCL cells [3]", "value": "10 to 20", "unit": "%"}, {"measurement": "absolute count and percentage of CD19+CD5+ cells in the lymphocyte population", "setting": "[4]; after one week of ibrutinib treatment, p<0.05", "value": "significantly increased"}, {"measurement": "intracellular Ki67 expression", "setting": "[4]; after treatment, p<0.05", "value": "significantly reduced"}, {"measurement": "pErk expression in CD20+CD5+ cells", "setting": "[4]; differences not statistically significant", "value": "reduced"}, {"measurement": "surface expression of CXCR4 in the CD19+CD5+ population", "setting": "[4]; following one week of drug treatment, p<0.05", "value": "significantly reduced"}, {"measurement": "CD38+ cells among CD19+CD5+ cells", "setting": "[4]; following treatment, p<0.01", "value": "significantly decreased"}, {"measurement": "CD19+CD3− population of gated lymphocytes", "setting": "[4]; illustrative patient, after one week of treatment, before 9.29%", "value": 63, "unit": "%"}, {"measurement": "CD19+CD5+ population", "setting": "[4]; illustrative patient, after one week of treatment, before 84.4%", "value": 98.8, "unit": "%"}, {"measurement": "GI50", "setting": "Ramos", "value": 5500, "unit": "nM"}, {"measurement": "CXCL13 stimulated migration of Mino cells", "setting": "Mino cells", "value": "significantly inhibited"}, {"measurement": "GI50", "setting": "LY10", "value": 100, "unit": "nM"}, {"measurement": "pBtk, pPLCy2 and pAkt in Mino cells", "setting": "pBtk, pPLCy2 and pAkt", "value": "dose-dependently inhibited"}, {"measurement": "sensitivity of DOHH2 cell line", "setting": "DoHH2 cells", "value": "moderately sensitive"}, {"measurement": "GI50", "setting": "DB", "value": "> 10000", "unit": "nM"}, {"measurement": "inhibition at 0.1 µM", "setting": "Jekol and HBL1 cells", "value": "50 to 70", "unit": "%"}, {"measurement": "GI50", "setting": "DHL-6", "value": 180, "unit": "nM"}, {"measurement": "GI50", "setting": "LY3", "value": "> 10000", "unit": "nM"}, {"measurement": "pseudoemperipoliesis of primary MCL (hCD19+ cells)", "setting": "primary MCL cells [5]", "value": "inhibited"}, {"measurement": "GI50", "setting": "Granta-519", "value": "> 10000", "unit": "nM"}, {"measurement": "production of human IL-10, MDC, MIP-1α, MIP-1β, TNFα, CCL17 and CCL21", "setting": "Mino and Jekol cells", "value": "dose dependently and potently suppressed"}, {"measurement": "GI50", "setting": "[6]", "value": "100 to 5500", "unit": "nM"}, {"measurement": "concentrations inhibiting pBtk (Y223, Y551) and reducing pPLCy2 (Y759, Y1217)", "setting": "[7]", "value": "≥ 10", "unit": "nM"}, {"measurement": "CR", "setting": "[8]; DLBCL (7 patients)", "value": 0}, {"measurement": "ORR (ITT)", "setting": "[8]; DLBCL (7 patients)", "value": 29, "unit": "%"}, {"measurement": "ORR (evaluable pts)", "setting": "[8]; DLBCL (7 patients)", "value": 29, "unit": "%"}, {"measurement": "PD", "setting": "[8]; DLBCL (7 patients)", "value": 4}, {"measurement": "PR", "setting": "[8]; DLBCL (7 patients)", "value": 2}, {"measurement": "CR", "setting": "[8]; FL (16 patients)", "value": 3}, {"measurement": "ORR (ITT)", "setting": "[8]; FL (16 patients)", "value": 38, "unit": "%"}, {"measurement": "ORR (evaluable pts)", "setting": "[8]; FL (16 patients)", "value": 46, "unit": "%"}, {"measurement": "PD", "setting": "[8]; FL (16 patients)", "value": 4}, {"measurement": "PR", "setting": "[8]; FL (16 patients)", "value": 3}, {"measurement": "CR", "setting": "[8]; MCL (9 patients)", "value": 3}, {"measurement": "PD", "setting": "[8]; MCL (9 patients)", "value": 1}, {"measurement": "PR", "setting": "[8]; MCL (9 patients)", "value": 4}, {"measurement": "CR", "setting": "[8]; MZL/MALT (4 patients)", "value": 0}, {"measurement": "ORR (ITT)", "setting": "[8]; MZL/MALT (4 patients)", "value": 25, "unit": "%"}, {"measurement": "ORR (evaluable pts)", "setting": "[8]; MZL/MALT (4 patients)", "value": 33, "unit": "%"}, {"measurement": "PD", "setting": "[8]; MZL/MALT (4 patients)", "value": 1}, {"measurement": "PR", "setting": "[8]; MZL/MALT (4 patients)", "value": 1}, {"measurement": "ORR (ITT)", "setting": "[8]; Overall (56 patients)", "value": 54, "unit": "%"}, {"measurement": "PD", "setting": "[8]; Overall (56 patients)", "value": 10}, {"measurement": "CR", "setting": "[8]; WM (4 patients)", "value": 0}, {"measurement": "PR", "setting": "[8]; WM (4 patients)", "value": 3}]}]}
